Assay results: US8592423B2, “Inhibitors of PDE10” (Bristol-Myers Squibb Company, priority 2011, dated 2013)

target: PDE10 (Homo sapiens (Human), UniProt Q9Y233); test: LE_PDE10A inhibition assay (SPA, cAMP hydrolysis); assay type: biochemical; details: 3H-cAMP at Km 25 nM, read-out: IC50
Protocol: LE_PDE10A Inhibition Assay:
The PDE10 inhibition assay in 384-well plates was conducted to identify substances for the inhibition of cyclic nucleotide hydrolysis by the PDE10 enzyme. […] PDE10 activity was measured using Scintillation Proximity Assay (SPA)-based methods. PDE10 catalyses the hydrolysis of the intracellular messenger adenosine […] (cAMP) to the non-cyclic adenosine 5′-monophosphate (AMP). The SPA assay was based upon the selective interaction of the tritiated product with yttrium oxide LEADseeker beads.
The assay buffer contained 25 mM HEPES pH 7.4, 2.5 mM Magnesium Chloride and 0.1% BSA. […] The reaction was terminated by adding 6 μL of 5 mg/mL of yttrium oxide LEADseeker beads. The beads were allowed to settle for 3 hours before plates were read in the LEEDSeaker for 6 minutes. The measured signal ccould be converted to activity relative to an […] control (100%). IC50 values were calculated by using in-house data software and IC50 values were generated by nonlinear regression analysis. (Bristol-Myers Squibb Company, Wallingford, Conn.).

Sequence of PDE10 (Q9Y233 whole entry): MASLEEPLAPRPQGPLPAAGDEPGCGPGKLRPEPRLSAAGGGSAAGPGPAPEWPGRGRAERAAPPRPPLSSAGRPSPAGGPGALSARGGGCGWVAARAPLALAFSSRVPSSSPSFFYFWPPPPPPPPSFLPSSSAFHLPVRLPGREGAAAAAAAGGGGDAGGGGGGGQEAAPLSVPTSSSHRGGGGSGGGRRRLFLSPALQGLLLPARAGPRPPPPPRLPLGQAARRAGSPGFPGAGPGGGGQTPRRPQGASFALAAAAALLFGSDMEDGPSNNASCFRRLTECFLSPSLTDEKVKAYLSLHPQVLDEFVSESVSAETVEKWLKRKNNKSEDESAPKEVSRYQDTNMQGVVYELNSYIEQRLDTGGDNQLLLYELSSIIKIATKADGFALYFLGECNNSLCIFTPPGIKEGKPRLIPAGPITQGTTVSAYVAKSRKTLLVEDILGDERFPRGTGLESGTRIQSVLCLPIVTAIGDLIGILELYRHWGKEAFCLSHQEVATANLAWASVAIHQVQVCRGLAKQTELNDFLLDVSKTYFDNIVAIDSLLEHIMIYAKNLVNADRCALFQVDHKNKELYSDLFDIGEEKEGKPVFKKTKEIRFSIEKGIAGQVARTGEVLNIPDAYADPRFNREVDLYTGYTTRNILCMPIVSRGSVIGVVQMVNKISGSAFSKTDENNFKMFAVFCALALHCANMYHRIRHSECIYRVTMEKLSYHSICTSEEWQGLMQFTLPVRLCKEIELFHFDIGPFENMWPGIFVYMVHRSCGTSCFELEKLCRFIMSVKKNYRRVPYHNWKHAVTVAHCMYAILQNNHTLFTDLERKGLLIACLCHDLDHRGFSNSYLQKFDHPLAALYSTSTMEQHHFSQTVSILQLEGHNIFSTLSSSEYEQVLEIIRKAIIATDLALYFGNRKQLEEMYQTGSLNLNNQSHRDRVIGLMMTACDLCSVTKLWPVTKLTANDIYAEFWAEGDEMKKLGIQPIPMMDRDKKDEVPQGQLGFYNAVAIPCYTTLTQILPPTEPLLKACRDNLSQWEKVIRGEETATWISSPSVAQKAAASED

Q: For `Cc1cc(C)n2nc(C3CC3c3nc(-c4ccccc4)cn3C)nc2n1` (stereo not drawn) [5,7-Dimethyl-2-(2-(1-methyl-4-phenyl-1H-imidazol-2-yl)cyclopropyl)-[1,2,4]-triazolo[1,5-a]pyrimidine], which IC50 is on record?
A: 14.5 nM

Q: For `Cc1ncc(C)n2nc(C3CC3c3nc(-c4ccccc4)cn3C)nc12` (racemic) [5,8-Dimethyl-2-(2-(1-methyl-4-phenyl-1H-imidazol-2-yl)cyclopropyl)-[1,2,4]triazolo[1,5-a]pyrazine], which IC50 is on record?
A: 1.79 nM

Q: For `CCCn1cc(-c2ccccc2)nc1C1CC1c1nc2c(C)ncc(C)n2n1` (stereo not drawn) [5,8-dimethyl-2-(2-(4-phenyl-1-propyl-1H-imidazol-2-yl)cyclopropyl)-[1,2,4]triazolo[1,5-a]pyrazine], which IC50 is on record?
A: 6.65 nM

same assay, conditions: 3H-cAMP at Km 25 nM, read-out: Range (IC50)

Q: How did the IC50 turn out when `Cc1ncc(C)n2nc(C3CC3c3nc(-c4ccccc4)cn3C)nc12` (single isomer, unassigned) [drawing 17, 5,8-dimethyl-2-(2-(1-methyl-4-phenyl-1H-imidazol-2-yl)cyclopropyl)-[1,2,4]triazolo[1,5-a]pyrazine] was run?
A: 10.1 to 40 nM

Q: With `Cc1ncc(C)n2nc(C3CC3c3nc(-c4ccccc4)cn3C)nc12` (single isomer, unassigned) [drawing 16, 5,8-dimethyl-2-(2-(1-methyl-4-phenyl-1H-imidazol-2-yl)cyclopropyl)-[1,2,4]triazolo[1,5-a]pyrazine] as the molecule, how does the IC50 read?
A: 0.8 to 5 nM

Q: For `CCn1cc(-c2ccccc2)nc1C1CC1c1nc2c(C)ncc(C)n2n1` (stereo not drawn) [2-(2-(1-Ethyl-4-phenyl-1H-imidazol-2-yl)cyclopropyl)-5,8-dimethyl-[1,2,4]triazolo[1,5-a]pyrazine], which IC50 is on record?
A: 5.1 to 10 nM
